This note sets out measurements from ChEMBL document CHEMBL1134042, “[Lys3]Didemnins as potential affinity ligands” (Bioorg Med Chem Lett, 2001).

The nature of test [1]: Antiproliferative activity as 50% growth inhibition of NCI-60 human tumor cells. Format: functional.
A short description of test [2]: Cell free protein biosynthesis inhibition activity was determined. Format: functional, Homo sapiens.
The nature of test [3]: Cytotoxicity in NCI-60 human tumor cells. Particulars: read-out: LC50 (the source's name). Format: functional.
Test [4] can be described thus: Total growth inhibition of NCI-60 human tumor cells by the compound was evaluated. Format: functional.

pIC50: −log10 of the molar value.

A word on the GI50: it is the concentration at which growth is held to half of that of the control. Low readings indicate more potent growth inhibition, high ones less potent growth inhibition. What is called pIC50 is the negative decadic logarithm of the IC50, by convention in mol/L. In general, TGI refers to the concentration at which net growth stops. As for `CC[C@H](C)[C@H]1NC(=O)[C@@H](NC(=O)[C@@H](CC(C)C)N(C)C(=O)[C@@H]2CCCN2C(=O)C(C)O)[C@@H](C)OC(=O)[C@H](Cc2ccc(OC)cc2)N(C)C(=O)[C@@H]2CCCN2C(=O)[C@H](CCCCN)NC(=O)[C@@H](C)C(=O)[C@H](C(C)C)OC(=O)C[C@@H]1O` (some centres undefined), the GI50 in test [1] worked out at 6.4 µM. Also, the pIC50 in test [2] is 3.81. The CC50 in test [3] was 25 µM. In addition, the TGI in test [4] was determined as 22 µM.
